Molecular target: T1, PIK3CA/PIK3R1 (p110α/p85α) (Homo sapiens, UniProt P42336)
T1 construct: purchased Thermo Fisher Scientific (Life Technologies) SelectScreen
Assay: SelectScreen Adapta
Format: biochemical
How it was run: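 Percent values come from Thermo SelectScreen profiling of NU5455, combining activity and binding assays. CSF1R was run in Z'LYTE format at Km app ATP, and CAMK1 in Adapta format with ATP listed at 10.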

T1 sequence (P42336 whole entry): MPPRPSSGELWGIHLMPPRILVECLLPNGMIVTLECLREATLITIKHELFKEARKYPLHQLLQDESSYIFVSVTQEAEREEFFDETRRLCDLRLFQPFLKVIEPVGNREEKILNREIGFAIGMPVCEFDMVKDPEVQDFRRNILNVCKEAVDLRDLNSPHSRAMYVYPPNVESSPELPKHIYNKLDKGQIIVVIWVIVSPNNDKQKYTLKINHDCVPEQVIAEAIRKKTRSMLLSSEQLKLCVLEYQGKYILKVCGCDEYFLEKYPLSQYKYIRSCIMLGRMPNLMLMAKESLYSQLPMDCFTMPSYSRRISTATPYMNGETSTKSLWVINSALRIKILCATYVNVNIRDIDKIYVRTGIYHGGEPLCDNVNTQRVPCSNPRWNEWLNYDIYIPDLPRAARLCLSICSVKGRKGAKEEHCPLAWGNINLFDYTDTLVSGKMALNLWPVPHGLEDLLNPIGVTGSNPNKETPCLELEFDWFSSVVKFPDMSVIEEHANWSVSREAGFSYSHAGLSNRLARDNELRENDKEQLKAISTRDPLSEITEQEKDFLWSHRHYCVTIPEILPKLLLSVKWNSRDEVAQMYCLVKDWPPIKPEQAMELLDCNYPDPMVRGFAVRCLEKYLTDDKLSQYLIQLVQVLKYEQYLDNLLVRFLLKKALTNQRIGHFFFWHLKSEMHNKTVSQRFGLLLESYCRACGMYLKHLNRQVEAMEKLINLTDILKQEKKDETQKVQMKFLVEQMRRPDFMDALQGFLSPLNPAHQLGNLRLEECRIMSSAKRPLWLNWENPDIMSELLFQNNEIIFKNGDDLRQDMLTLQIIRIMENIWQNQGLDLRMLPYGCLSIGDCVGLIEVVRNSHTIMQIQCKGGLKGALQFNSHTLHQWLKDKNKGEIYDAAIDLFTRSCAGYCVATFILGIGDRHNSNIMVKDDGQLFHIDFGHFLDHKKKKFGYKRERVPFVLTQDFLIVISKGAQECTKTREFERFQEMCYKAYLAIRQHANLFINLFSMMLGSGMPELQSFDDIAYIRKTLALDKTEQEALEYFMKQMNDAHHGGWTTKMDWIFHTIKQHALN
T1 sequence (P27986 whole entry partner): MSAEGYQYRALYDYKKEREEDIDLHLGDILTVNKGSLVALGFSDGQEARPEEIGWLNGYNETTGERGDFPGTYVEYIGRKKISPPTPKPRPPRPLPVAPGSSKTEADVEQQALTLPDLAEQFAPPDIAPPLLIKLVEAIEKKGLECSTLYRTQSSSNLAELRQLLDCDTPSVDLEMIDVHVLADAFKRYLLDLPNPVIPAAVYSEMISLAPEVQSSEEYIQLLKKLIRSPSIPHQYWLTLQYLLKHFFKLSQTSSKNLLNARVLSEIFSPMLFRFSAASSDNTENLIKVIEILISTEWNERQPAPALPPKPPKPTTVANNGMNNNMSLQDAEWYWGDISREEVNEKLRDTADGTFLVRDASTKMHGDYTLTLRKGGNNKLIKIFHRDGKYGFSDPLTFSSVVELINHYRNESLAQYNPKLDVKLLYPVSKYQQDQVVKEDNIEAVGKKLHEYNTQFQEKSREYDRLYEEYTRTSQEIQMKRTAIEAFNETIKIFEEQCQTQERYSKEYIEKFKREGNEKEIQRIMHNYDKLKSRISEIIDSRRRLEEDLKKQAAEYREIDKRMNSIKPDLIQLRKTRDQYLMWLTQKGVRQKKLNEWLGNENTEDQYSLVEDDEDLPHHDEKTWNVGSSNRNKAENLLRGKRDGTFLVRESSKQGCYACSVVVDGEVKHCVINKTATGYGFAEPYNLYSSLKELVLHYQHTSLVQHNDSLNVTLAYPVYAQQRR

Compound `CN(C(=O)CN1CCOCC1)c1ccc2sc3c(-c4cccc5c(=O)cc(N6CC7CCC(C6)O7)oc45)cccc3c2c1` [NU5455] has an inhibition at 1 µM of 4.2%.
